Values quoted from earlier work as cited in patent publication US8053472B2, “Use of the acetyl L-carnitine in association with the biotin for the treatment of patients with type 2 insulin-resistant diabetes mellitus” (Sigma-Tau Industrie Farmaceutiche Riunite S.p.A., priority 2001, dated 2011).

Test system: hypertriglyceridemic rats with noninsulin-dependent diabetes mellitus
Conditions: high doses of biotin added to the diet

Structure (SMILES): O=C(O)CCCC[C@@H]1SC[C@@H]2NC(=O)N[C@@H]21 [biotin]
- altered tolerance to glucose: improves
